We go through ten compounds from PubChem BioAssay (NCI).

Some test systems named below: COLO 205 colon; SK-MEL-28 melanoma; OVCAR-3 ovarian; MDA-MB-231 breast; HT29 colon; A549 NSCLC; UO-31 renal; CAKI-1 renal; SK-MEL-5 melanoma; OVCAR-8 ovarian.
What all share (test): growth of human tumour cells (NCI), 48 h

Structures are written as SMILES.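 Values below derive from 48-hour exposures of cells grown in 96-well plates, with endpoints linearly interpolated between the two concentrations bracketing the appropriate inhibition level. GI50: concentration for 50% inhibition of growth. TGI: concentration producing complete growth inhibition.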

Take `CC(=O)N1CCN(CCOc2ccc(C3CCN(C4=Nn5c(nnc5C(F)(F)F)CC4)CC3)cc2)CC1`: the GI50 in the experiment on COLO 205 colon was 11.5 µM; with SK-MEL-28 melanoma, 21.4 µM; in the experiment on OVCAR-3 ovarian it was 20.8 µM; in the experiment on MDA-MB-231 breast, 7.83 µM; with HT29 colon, 9.08 µM; with A549 NSCLC, 41.4 µM. Also, the GI50 with UO-31 renal is 4.75 µM; in the experiment with CAKI-1 renal, 3.27 µM; in the experiment with SK-MEL-5 melanoma, 6.58 µM; in the experiment with OVCAR-8 ovarian, 36 µM. Moreover, the TGI with COLO 205 colon is above 70.6 µM; in the experiment with SK-MEL-28 melanoma, above 100 µM; in the experiment on OVCAR-3 ovarian it was above 100 µM; in the experiment on MDA-MB-231 breast, above 100 µM; with HT29 colon it was above 100 µM; in the experiment with A549 NSCLC, above 100 µM. Moreover, the TGI with UO-31 renal is above 100 µM; in the experiment with CAKI-1 renal, above 100 µM; in the experiment with SK-MEL-5 melanoma, 30.8 µM; in the experiment with OVCAR-8 ovarian, above 100 µM.

As to `CC1(C)[C@@H](OC(N)=O)C=C[C@]2(C=O)[C@H]3CC[C@]4(C)[C@@H](c5ccc(=O)oc5)[C@@H](Cl)C[C@]4(O)C3=CC[C@@H]12`, the GI50 in the experiment on COLO 205 colon was 0.00685 µM; in the experiment on SK-MEL-28 melanoma, 0.00642 µM; with OVCAR-3 ovarian it was 0.00329 µM; in the experiment on MDA-MB-231 breast, 0.00899 µM; in the experiment with HT29 colon, 0.00521 µM; in the experiment on A549 NSCLC, 0.00361 µM. In addition, the GI50 is 0.00524 µM with UO-31 renal, 0.00446 µM in the experiment on CAKI-1 renal, 0.00458 µM with SK-MEL-5 melanoma and 0.00517 µM in the experiment on OVCAR-8 ovarian. Besides, the TGI with COLO 205 colon turned out to be 0.0178 µM; in the experiment on SK-MEL-28 melanoma, 0.0156 µM; with OVCAR-3 ovarian it was 0.00828 µM; in the experiment with MDA-MB-231 breast, 0.0492 µM; in the experiment with HT29 colon, 0.011 µM; with A549 NSCLC, 0.00752 µM. In addition, the TGI in the experiment with UO-31 renal is 0.0124 µM; in the experiment on CAKI-1 renal, 0.00846 µM; in the experiment with SK-MEL-5 melanoma, 0.00903 µM; in the experiment on OVCAR-8 ovarian it was 0.0123 µM.

As to `OC(COc1cccc2ccccc12)CN1CCN(c2ccccc2Cl)CC1` (stereo not given), the GI50 in the experiment with COLO 205 colon was 11.9 µM; with SK-MEL-28 melanoma, 14.5 µM; in the experiment on OVCAR-3 ovarian, 13.9 µM; in the experiment on MDA-MB-231 breast, 10.8 µM; with HT29 colon, 3.3 µM; with A549 NSCLC, 18.2 µM. In addition, the GI50 is 4.17 µM with UO-31 renal, 7.23 µM with CAKI-1 renal, 15.2 µM in the experiment on SK-MEL-5 melanoma and 16.6 µM in the experiment with OVCAR-8 ovarian. In addition, the TGI in the experiment with COLO 205 colon was determined as 25 µM; in the experiment with SK-MEL-28 melanoma, 27.9 µM; in the experiment with OVCAR-3 ovarian, 27.6 µM; with MDA-MB-231 breast, 25.5 µM; with HT29 colon, 12.5 µM; with A549 NSCLC it was 35.4 µM. Also, the TGI with UO-31 renal stood at 18.7 µM; in the experiment on CAKI-1 renal, 22.7 µM; in the experiment with SK-MEL-5 melanoma, 28.9 µM; with OVCAR-8 ovarian, 32.2 µM.

As to `Cc1cc(O)c(C(c2ccncc2)c2c(O)cc(C)[nH]c2=O)c(=O)[nH]1`, the TGI in the experiment on COLO 205 colon, with SK-MEL-28 melanoma, in the experiment on OVCAR-3 ovarian, with MDA-MB-231 breast, with HT29 colon and with A549 NSCLC was above 100 µM each time. Moreover, the TGI in the experiment on UO-31 renal, in the experiment with CAKI-1 renal, in the experiment with SK-MEL-5 melanoma and in the experiment with OVCAR-8 ovarian was above 100 µM in each case.

With `O=C(Nc1cccc(C(F)(F)F)c1)c1cc(Br)cc(Br)c1O`, the TGI with COLO 205 colon is 9.71 µM; in the experiment on SK-MEL-28 melanoma, above 10 µM; in the experiment on OVCAR-3 ovarian it was 6.14 µM; in the experiment with MDA-MB-231 breast, above 10 µM; with HT29 colon it was above 10 µM; in the experiment with A549 NSCLC, 9.56 µM. Moreover, the TGI in the experiment with UO-31 renal was 8.51 µM; in the experiment on CAKI-1 renal it was 6.6 µM; with SK-MEL-5 melanoma, 3.58 µM; in the experiment with OVCAR-8 ovarian, above 10 µM.

In the case of `O=C1c2ccn(CCCCN3CCC(O)CC3)c2C(=O)c2c1c(O)c1ccccc1c2O`, the GI50 in the experiment with COLO 205 colon is 37.2 µM; in the experiment on SK-MEL-28 melanoma, 13.3 µM; with OVCAR-3 ovarian, 2.24 µM; with MDA-MB-231 breast, 13.3 µM; with HT29 colon, 46.9 µM; with A549 NSCLC it was 26.2 µM. For the same compound, the GI50 in the experiment on UO-31 renal was 2.4 µM; with CAKI-1 renal it was 13.9 µM; in the experiment on SK-MEL-5 melanoma it was 16.6 µM; in the experiment on OVCAR-8 ovarian, 25.6 µM. The TGI with COLO 205 colon was above 66.2 µM; in the experiment with SK-MEL-28 melanoma, above 41 µM; in the experiment with OVCAR-3 ovarian, 4.95 µM; with MDA-MB-231 breast, 38.3 µM; in the experiment on HT29 colon it was above 100 µM; with A549 NSCLC, 68.9 µM. For the same compound, the TGI in the experiment with UO-31 renal came to 11.9 µM; in the experiment with CAKI-1 renal, 43.7 µM; in the experiment on SK-MEL-5 melanoma, 96.2 µM; with OVCAR-8 ovarian it was 75.3 µM.

For the compound `COc1cccc(C2=C(c3cn(C)c4cccc(OC)c34)C(=O)NC2=O)c1`, the GI50 with COLO 205 colon is 6.48 µM; with SK-MEL-28 melanoma, above 19.1 µM; with OVCAR-3 ovarian it was 7.74 µM; in the experiment with MDA-MB-231 breast it was 17.9 µM; in the experiment with HT29 colon, 5.34 µM; with A549 NSCLC it was 11.2 µM. Further, the GI50 was 17.9 µM with UO-31 renal, 9.79 µM in the experiment on CAKI-1 renal, 7.36 µM in the experiment with SK-MEL-5 melanoma and 18.5 µM with OVCAR-8 ovarian. The TGI in the experiment on COLO 205 colon is above 20.3 µM; in the experiment on SK-MEL-28 melanoma, above 25 µM; in the experiment with OVCAR-3 ovarian, above 25 µM; in the experiment on MDA-MB-231 breast it was above 25 µM; in the experiment with HT29 colon, above 25 µM; in the experiment on A549 NSCLC, above 25 µM. Besides, the TGI in the experiment with UO-31 renal, with CAKI-1 renal, in the experiment with SK-MEL-5 melanoma and in the experiment with OVCAR-8 ovarian was above 25 µM throughout.

As for `O=C(NCCCCOCC#Cc1ccccc1C#CCS(=O)(=O)c1ccccc1)c1cc2ccccc2[nH]1`, the GI50 was 10.9 µM with COLO 205 colon; 9.82 µM with SK-MEL-28 melanoma; 14 µM in the experiment with OVCAR-3 ovarian; 9.59 µM with MDA-MB-231 breast; 13.7 µM in the experiment with HT29 colon; 16.8 µM in the experiment with A549 NSCLC. Further, the GI50 is 4.05 µM in the experiment with UO-31 renal, 14.9 µM in the experiment with CAKI-1 renal, 7.86 µM with SK-MEL-5 melanoma and 11.4 µM with OVCAR-8 ovarian. Also, the TGI in the experiment with COLO 205 colon was 28.1 µM; with SK-MEL-28 melanoma, 26.7 µM; in the experiment on OVCAR-3 ovarian it was above 35 µM; in the experiment on MDA-MB-231 breast, 27.4 µM; with HT29 colon it was above 50 µM; in the experiment on A549 NSCLC, above 50 µM. Besides, the TGI in the experiment with UO-31 renal is 11.8 µM; in the experiment with CAKI-1 renal, above 38.2 µM; in the experiment on SK-MEL-5 melanoma it was 16.3 µM; with OVCAR-8 ovarian, 48.9 µM.

Turning to `O=[As]c1ccc(C(=O)c2ccc(Oc3ccccc3)cc2)cc1` (stereo not given), the GI50 in the experiment on COLO 205 colon is 0.0494 µM; in the experiment on SK-MEL-28 melanoma it was 0.0416 µM; in the experiment with OVCAR-3 ovarian, 0.0243 µM; with MDA-MB-231 breast, 0.0547 µM; in the experiment with HT29 colon, 0.0379 µM; with A549 NSCLC, 0.0465 µM. Besides, the GI50 in the experiment with UO-31 renal was 0.0695 µM; in the experiment with CAKI-1 renal it was 0.0392 µM; in the experiment on SK-MEL-5 melanoma, 0.0539 µM; with OVCAR-8 ovarian it was 0.0389 µM. Also, the TGI in the experiment on COLO 205 colon was determined as 0.169 µM; in the experiment on SK-MEL-28 melanoma it was 0.153 µM; in the experiment on OVCAR-3 ovarian, 0.0608 µM; with MDA-MB-231 breast, 0.192 µM; with HT29 colon it was 0.154 µM; in the experiment on A549 NSCLC, 0.172 µM. In addition, the TGI with UO-31 renal was determined as 0.208 µM; in the experiment with CAKI-1 renal, 0.12 µM; in the experiment with SK-MEL-5 melanoma, 0.174 µM; in the experiment on OVCAR-8 ovarian, 0.146 µM.

Take `O=C(CC(=O)c1ccccc1)c1ccccc1`: the GI50 was 22.5 µM with COLO 205 colon; 31 µM in the experiment with SK-MEL-28 melanoma; 16.2 µM with OVCAR-3 ovarian; above 100 µM in the experiment with MDA-MB-231 breast; 30.1 µM with HT29 colon; 26.9 µM with A549 NSCLC. In addition, the GI50 is 36.5 µM with UO-31 renal, 20.1 µM in the experiment on CAKI-1 renal, 11.5 µM in the experiment on SK-MEL-5 melanoma and 20.4 µM with OVCAR-8 ovarian. Moreover, the TGI was above 100 µM with COLO 205 colon; above 100 µM with SK-MEL-28 melanoma; 53.5 µM in the experiment on OVCAR-3 ovarian; above 100 µM with MDA-MB-231 breast; above 100 µM with HT29 colon; 69.5 µM in the experiment on A549 NSCLC. In addition, the TGI in the experiment with UO-31 renal was above 100 µM; in the experiment with CAKI-1 renal, 66 µM; in the experiment with SK-MEL-5 melanoma, 32.4 µM; in the experiment on OVCAR-8 ovarian, above 100 µM.
